Results as given in a melting point compilation (Tetko et al.; mined from patent text by program, amines drawn as free bases though some values may be those of a salt).

| SMILES | melting point |
| --- | --- |
| CCCNc1nc(NCc2ccc(NC(=O)c3ccc(F)cc3)cc2)c2ccc(C)cc2n1 | 170 to 174 °C |
| N#CCCCOc1ccc(-c2nnc(CSCCOc3ccccc3)o2)cc1 | 67 to 68 °C |
| CC(=O)OCC1CC(n2c(Br)nc3cc(Cl)c(Cl)cc32)C(OC(C)=O)C1OC(C)=O (stereo not given) | 156 to 159 °C |
| CC1Cc2ccc(N3C(=O)C4=C(CCCC4)C3=O)cc2O1 (stereo not given) | 114 to 118 °C |
| CC(=O)OC1CSC(Oc2cccc(-c3cccnc3F)c2)C(OC(C)=O)C1OC(C)=O (stereo not given) | 116 °C |
| Cn1c(=O)c2conc2n(C)c1=O | 170 to 171 °C |
| CC(C)(C)c1cc(C=C2SC(NCO)=NC2=O)cc(C(C)(C)C)c1O | 177 to 179 °C |
| OCc1cc(Cl)c(Br)cn1 | 109 to 110 °C |
| CC(=O)Nc1cc(N2CCCCC2)nc(=N)n1O | 204 to 205 °C |
| Nc1c([N+](=O)[O-])sc2c(Cl)cc(Cl)cc12 | 290 to 292 °C |
| CS(=O)(=O)c1ccc(-c2cnn(Cc3ccccn3)c(=O)c2-c2ccc(F)cc2)cc1 | 182 to 184 °C |
| O=C(/C(=C\c1ccc(I)cc1)Sc1ccc(Br)cc1)c1ccc(Br)cc1 | 128 to 130 °C |
| COc1cccc2c(C)c3n(c(=O)c12)CCCS3 | 122 to 123 °C |
| COc1cccc2c1CCCC2(O)CN (stereo not given) | 129 to 130 °C |
| [N-]=[N+]=CC(=O)OC/C=C/c1ccc(NC(=O)OCc2ccccc2)cc1F | 93 to 96 °C |
| COc1ccc2ccc3c(c2c1)CCC(=O)O3 | 100 to 101 °C |
| CCNC(=O)c1ccc(-n2nnc(C(=O)NC3CC3)c2CS(=O)(=O)c2ccccc2)cc1 | 169 to 172 °C |
| CC(C)c1ccc2c(c1)NC(=S)C2=O | 169 to 180 °C |
| O=C(N1CCN(c2ccccc2)CC1)N1CC(Oc2ccc(Br)cc2)C1 | 160 to 161 °C |
| O=C(O)c1cccc(-c2ccc(Cl)c3cc(Cc4cc(F)cc(Cl)c4)sc23)c1 | 110 to 114 °C |
| COC(=O)/C=C(C)/C=C/C1(c2cc3c(cc2C)C(C)(C)CCC3(C)C)CC=CS1 (stereo not given) | 152 to 153 °C |

| SMILES | melting point |
| --- | --- |
| Brc1ccc2[nH]cc(Cc3cccnc3)c2c1 | 122 °C |
| COc1ccc(C(=O)COc2ccccc2Br)cc1 | 104 °C |
| OCC(OC1CCCCO1)c1ccc2sccc2c1 (single isomer, unassigned; (-)) | 62 to 77 °C |
| c1ccc(NC[C@@H]2N[C@H]2c2ccccc2)cc1 (relative stereo) | 96 to 97 °C |
| CCOC(=O)c1cc(C(=O)C(C)C)c(=O)[nH]c1C(=O)OCC | 116 to 118 °C |
| CCC(=O)NCCC1CCc2ccc3c(c21)NC(=O)CO3 (stereo not given) | 216 to 219 °C |
| CC(C=O)Oc1ccc(Cl)cc1Cl (stereo not given) | 87 to 88 °C |
| COCC(=O)Nc1nc(NC(=O)COC)nc(NC2CC2)n1 | 175 to 180 °C |
| COc1cccc2[nH]c3c(c12)CC(N(C)C)CC3 (stereo not given) | 185 to 189 °C |
| CCOc1ccc(-c2ccc(Cl)nn2)c(OCC(O)CNC(C)(C)C)c1 (stereo not given) | 115 to 117 °C |
| CC(C)(C)OC(=O)N[C@H](CCCNC(N)=N[N+](=O)[O-])C(=O)NCc1ccc(CNC(N)=O)cc1 | 172 °C |
| COc1ccc(-c2[nH]c3ccc(OCc4ccccc4)cc3c2C)cc1 | 158 °C |
| Cc1cn(NCCCc2ccncc2F)c2ccc(OCc3ccccc3)cc12 | 94 to 96 °C |
| O=C1C2CC3CC1CC(c1cc(Br)ccc1OCc1ccccc1)(C3)C2 | 163 to 165 °C |
| CCOc1nn(-c2ccc(C(F)(F)F)cn2)cc1CCCOc1ccccc1CCC(=O)O | 93 to 94 °C |
| Cc1cc(NC(=O)c2cccc(CCc3cc(Nc4ccccc4)n[nH]3)c2)ccc1C(C)C | 150 to 151 °C |
| CS(=O)(=O)c1ccc(-n2cc(C(F)(F)F)nc2-c2ccc(-c3cccs3)cc2)cc1 | 95 to 97 °C |
| COc1ccccc1Nc1ncc2cc(-c3c(Cl)cccc3Cl)c(=O)n(C)c2n1 | 200 to 201 °C |
| CC(C)(OCCOCc1nn(Cc2ccccc2)c2ccccc12)C(=O)O | 94 to 95 °C |
| c1ccc(-c2nnc3cc(C45CCC(CC4)C5)c(OCc4ccccn4)nn23)cc1 | 166 to 168 °C |
| CCCc1c(OCCCCCc2nnnn2C)ccc(C(C)=O)c1O | 72 to 75 °C |

| SMILES | melting point |
| --- | --- |
| CN1C(=O)CN(c2ccccc2)C1=O | 168 to 170 °C |
| COc1cc(C(O)CN2CCC(O)(c3ccccc3)CC2)on1 (stereo not given) | 166 to 168 °C |
| CCOC(=O)CNC(=O)c1n[nH]cc1NC(=O)c1cccc(C)n1 | 228 to 229 °C |
| O=c1[nH]c2ccc(S(=O)CCN3CCC(O)(Cc4ccc(F)cc4)CC3)cc2o1 (stereo not given) | 153 to 155 °C |
| CC(C)(C)CC(C)(C)c1ccc(O)c(-n2nc3ccc(C(F)(F)F)cc3n2)c1 | 80 to 81 °C |
| CCC1c2ncn(CC)c2CCN1C(=S)NC(C)C (stereo not given) | 196 °C |
| CNC(C)CN1CCc2c(c(=O)oc3cc(OC)ccc23)C1 (stereo not given) | 109 to 111 °C |
| CCCCN(C(=O)CNC(=O)c1cc2ccccc2n1CC(=O)OC)c1c(OC)cc(C)cc1OC | 139 °C |
| CCCCC1=NC2(CCCC2)C(=O)N1Cc1ccc(-c2ccccc2S(=O)(=O)Nc2noc(C)c2C)c(CO)c1 | 90 to 98 °C |
| CS(=O)(=O)c1cccc(NC(=O)c2cnn3c(C4CC4)cc(-c4ccc(Cl)cc4)nc23)c1 | 235 to 238 °C |
| O=C(Cc1ccc(Br)cc1)c1ccc(Cl)cc1 | 123 °C |
| COC(=O)C(C)(O)c1ccc(-c2ccccc2)c(F)c1 (stereo not given) | 59 to 61 °C |
| COc1ccc(-c2c(N)cnc3ccc(Cl)cc23)cc1OC | 187 to 190 °C |
| O=C(c1cc(-c2ccncc2)c(N2CCOCC2)s1)c1ccc(Cl)cc1Cl | 180 °C |
| CCN(CC)C(=O)c1ccc(/C=C(\C)c2ccc3c(c2)C(C)(C)CCC3(C)C)cc1 | 111 to 112 °C |
| OC(C1=NCC2CCCCN12)(c1ccccc1)c1ccccc1 (stereo not given) | 131 to 133 °C |
| O=C1CC(CO)C(c2c(Cl)cccc2Cl)N1Cc1ccccc1 (stereo not given) | 122 to 126 °C |
| O=c1[nH]nc(-c2ccc3ccccc3c2)o1 | 197 to 199 °C |
| Cc1nnc2n1-c1ccc(Cl)cc1N(c1ccccc1)C(=O)C2 | 297 to 298 °C |
| CC(C)(C)OC(=O)C(=[N+]=[N-])C(=O)CO | 35 °C |
| O=C1OCC2=C1C(c1ccccc1[N+](=O)[O-])C1=C(COC1=O)N2 | 273 to 274 °C |

Now from value to compound:

| melting point | SMILES |
| --- | --- |
| 234 to 236 °C | Nc1c(C=O)cc(-n2cnnc2)cc1C(F)(F)F |
| 87 to 90 °C | CS(=O)c1ccc(C#N)cc1 (stereo not given) |
| 173 °C | CC(C)(OC(=O)Cc1cccc(F)c1)C(=O)c1ccc(S(C)(=O)=O)cc1 |
| 275 to 278 °C | CSC1=CC2=CN(O)NN2C(SC)=N1 |
| 128 to 130 °C | CCc1c(Sc2cc(C)cc(C)c2)n(CC2CC=CC2)c(=O)[nH]c1=O |
| 110 °C | c1ccc(-n2nnc3ccc(Cn4ccnc4)cc32)cc1 |
| 105 to 107 °C | Cc1ccccc1C1CC(=O)c2c(C(F)(F)F)coc2C1 (stereo not given) |
| 185 to 186 °C | O=C(Nc1cccnn1)N1CCN(c2nc(-c3ccccc3)ns2)CC1 |
| 224 to 226 °C | CC(=O)N=c1sccn1CC(=O)c1cccc(NC(C)=O)c1 |
| 33 to 40 °C | CC(=O)Oc1cccc(Br)c1 |
| 112 to 114 °C | CC#CC(O)(C#CC)c1cc(-c2cccc(Cl)c2)ccc1N |
| 205 to 208 °C | COC(=O)CC1Sc2ccc([N+](=O)[O-])cc2CN(CCc2ccccc2)C1=O (stereo not given) |
| 112 to 113 °C | CCC1(CCCCCl)C(=O)Nc2c(C)cccc21 (stereo not given) |
| 117 to 119 °C | CC(=O)NC1Cc2ccc(Cl)cc2C1 (stereo not given) |
| 145 °C | CCCCc1nc(=O)c2ccc(C(=O)OCC)cc2[nH]1 |
| 124 °C | O=C(O)c1ccc(OCCCCO)cc1 |
| 183 to 184 °C | Cc1cc(Br)cc(-c2ccc3c(c2)C(C)(C)OC(=S)N3)c1 |
| > 270 °C | CCn1c(=O)c2[nH]c(/C=C/c3cccc(C(F)(F)F)c3)nc2n(CC)c1=O |
| 197 °C | CNC(=O)N(OC)c1ccc(Oc2ccc3sncc3c2)c(C(F)(F)F)c1 |
| 100 to 102 °C | CCOC(=O)c1cccc(NC(=O)C2=C(C)OCCS2)c1 |
| 71 to 72 °C | CCCCCC(=O)c1c(C)n(C(C)=O)c(=O)n1C(C)=O |

| melting point | SMILES |
| --- | --- |
| 144 to 145 °C | CC(C)c1cc(CCC(=O)NCc2cccc(NC(=N)c3cccs3)c2)cc(C(C)C)c1O |
| 138 to 140 °C | COc1ccc2nccc(NC(=O)N3CCN(CCc4cnc5ccccc5n4)CC3)c2n1 |
| 143 to 145 °C | CCOC(=O)CC(=O)c1cccs1 |
| 167 to 169 °C | O=C(O)CCC(=O)Nc1cccc2ccccc12 |
| 165 to 167 °C | N#Cc1cnn(-c2c(Cl)cc(C(F)(F)F)cc2Cl)c1N |
| 183 to 184 °C | CC1(C)CC(=O)CC(=O)N1 |
| 232 to 233 °C | O=c1c2c(cc3n1CCCS3(=O)=O)CCCC2 |
| 210 to 211 °C | CCOC(=O)Nc1cn2nc(OCc3cc(OC)ccc3OC)ccc2n1 |
| 180 °C | CC(=O)OC1CSC(Oc2ccc(-c3cccnc3Cl)nc2)C(OC(C)=O)C1OC(C)=O (stereo not given) |
| 202 to 203 °C | COc1ccc2c(c1)C(=O)CC1(CCN(c3cc(=O)n(C)c(=O)n3C)CC1)O2 |
| 201 to 202 °C | COc1cc2c(Nc3ccc(C)c(OC(C)=O)c3)ncnc2cc1OCc1ccncc1 |
| 233 to 235 °C | CC1(C)CC2(NC(=O)NC2=O)c2ccccc2O1 (stereo not given) |
| 170 °C | COc1ccc(-c2c(C#N)c(CNS(=O)(=O)c3c(F)cccc3F)nn2-c2ccc(Cl)cc2Cl)cc1 |
| 103 to 104 °C | CCCOc1cc(-n2c(=O)cc(C(F)(F)F)n(C)c2=O)c(F)cc1Cl |
| 103 to 104 °C | COCC1CC(=O)c2nc(C)c(C)n2C1 (stereo not given) |
| 95 to 100 °C | Oc1ccc(OCCN2CCN(c3ccccc3)CC2)cc1 |
| 295 to 297 °C | COc1cc2c(Nc3ccc(Sc4nccn4C)c(Cl)c3)c(C#N)cnc2cc1F |
| 141 to 146 °C | CCCCc1oc2ccccc2c1C(=O)c1ccc(N(CCN(CC)CC)S(=O)(=O)c2cccnc2)cc1 |
| 77 to 78 °C | COC(=O)c1cc(I)c[nH]1 |
| 174 °C | Cc1ccc(C=Cc2ccc(C#CC(C)N(O)C(N)=O)o2)cc1 (stereo not given) |
| 198 to 200 °C | O=C(O)c1cccc(Cc2cc(Cl)cc(Cc3ccccc3O)c2O)c1O |
